{"source": "patent US20090087443A1", "about": "“Pharmacological Adjunctive Treatment Associated with Glaucoma Filtration Surgery” (priority 2007, published 2009)", "key": {"[1]": {"tested_on": "New Zealand White rabbits", "experiment": "Slit-lamp ophthalmic observations (McDonald Shadduck scoring) in the rabbit topical IOP study", "type": "in vivo", "parameters": "key to Conjunctival Congestion Score, treated right eye: 1 = A flushed, reddish color predominantly confined to the palpebral conjunctiva with some perilimbal injection but primarily confined to the lower and upper parts of the eye from the 4:00 to 7:00 and 11:00 to 1:00 positions; key to Cornea Score, treated right eye: 1 = Some loss of transparency. Only the epithelium and/or the anterior half of the stoma are involved. The underlying structures are clearly visible although some cloudiness may be readily apparent; key to Ophthalmic Observation (Slit-Lamp), treated right eye, individual animals: AN = Appeared normal", "conditions": "for Ophthalmic Observation (Slit-Lamp), treated right eye, individual animals: examination Days 5, 12, 22, 26, 33 as listed per animal (days without scored finding, until death)", "procedure": "Prior to placement on study, each animal underwent a pre-treatment ophthalmic examination (slit lamp and indirect ophthalmoscopy). Observations were scored according to the McDonald Shadduck system and recorded using a standardized data collection sheet.\nOphthalmic examinations (slit lamp) were performed prior to the first dosing on Days 5, 12, 22, 26, and 33. Ocular findings were scored according to the McDonald Shadduck system and recorded using a standardized data collection sheet."}, "[2]": {"tested_on": "New Zealand White rabbits", "experiment": "Mortality/morbidity in the rabbit topical IOP study", "type": "in vivo", "conditions": "for Mortality (number of animals found dead or euthanized prior to study completion/number of animals in group): right eye topical 4 × daily through Day 31, to Day 33"}, "[3]": {"tested_on": "neovascularization and angiogenesis in the rat cornea", "conditions": "X. Xin et al., J. Biol. Chem. 274:9116-9121 (1999); cited from earlier work"}, "[4]": {"tested_on": "Human Tenon's fibroblasts", "experiment": "TGF-β stimulated cellular levels of collagen type I, α-smooth muscle actin and tissue transglutaminase (Western blot)", "type": "cell-based", "conditions": "TGF-β 5 ng/ml, 0.1, 1, 3, 5 or 10 μM, day 5, ratio to GAPDH", "procedure": "Methods: Human Tenon's fibroblasts were seeded in 60 mm plates in 10% FBS MEM (fetal bovine serum/Eagle's minimum essential medium) and grown until approximately 90% confluency. After the cells were starved in 0.5% FBS MEM for approximately 72 hours, the media was changed to fresh 0.5% FBS MEM. […] Cells were harvested 1, 3 or 5 days later. They were washed twice with cold 1× PBS and scraped into 1×SDS sample buffer. Lysates were assayed for protein content using the DC protein assay kit from Bio-Rad. Equal amounts of protein from each sample were electrophoresed on a 7.5% Tris-glycine SDS gel. Proteins were transferred to a PVDF membrane, blocked and probed with one or more of the following antibodies: mouse monoclonal anti-α-smooth muscle actin Clone 1A4: (Sigma Aldrich, #A2547), mouse monoclonal anti-human GAPDH (6C5) (Santa Cruz Biotechnology, Inc., #sc-32233), goat anti-human collagen α1Type I (L-19) (Santa Cruz Biotechnology, Inc., #sc-8783), or mouse monoclonal anti-transglutaminase II Ab-3 (ClonesCUB7402+TG100) (NeoMarkers, # MS-300-P). Density of each band was measured densitometrically and the ratio to GADPH calculated."}, "[5]": {"tested_on": "IL-1β-induced cytokine production in human corneal epithelial cells (HCECs)", "experiment": "IL-1β-stimulated cytokine production in primary human corneal epithelial cells (30-cytokine Luminex kit)", "method": "Primary HCECs were seeded in 24-well plates. […] Each treatment was performed in triplicate. Media were collected and used for determination of cytokine content using a 30-cytokine Luminex kit. Cell viability was determined by alamarBlue assay (LP06013).\nMedian fluorescence intensity (MFI) was used to obtain the concentration of each cytokines in pg/ml based on the standard curve of each cytokine assayed by Luminex. The linear range of the standard curve for each cytokine was used for determination of cytokine concentration. Duplicate values for each sample were averaged. Data were expressed as mean±SD. Statistical analysis was performed using one-way ANOVA-Dunnett's test, and P<0.05 was considered statistically significant."}, "[6]": {"tested_on": "fibroblasts", "conditions": "cited from earlier work"}, "[7]": {"conditions": "0.1% dexamethasone, 0.05 mg/dose 4 × daily (Group A)"}}, "note": "Values joined by “and” are separate entries in the source; they are usually repeats but may differ in a detail not shown here. Equal entries are not always repeated. “Also recorded” adds a separate entry of the source. Where two headings read alike, the source gives them in different places.", "data": [{"molecule": "C[C@@H]1C[C@H]2[C@@H]3CCC4=CC(=O)C=C[C@]4(C)[C@@]3(F)[C@@H](O)C[C@]2(C)[C@@]1(O)C(=O)CO", "note": "[dexamethasone, reference compound]", "values": [{"measurement": "Conjunctival Congestion Score, treated right eye", "setting": "[1]; 0.1% dexamethasone 4 × daily, animal No. 3016, Day 5", "value": 1}, {"measurement": "Conjunctival Congestion Score, treated right eye", "setting": "[1]; 0.1% dexamethasone 4 × daily, animal No. 3081, Day 22", "value": 1}, {"measurement": "Ophthalmic Observation (Slit-Lamp), treated right eye, individual animals", "setting": "[1]; 0.1% dexamethasone 4 × daily", "value": "AN"}, {"measurement": "Mortality (number of animals found dead or euthanized prior to study completion/number of animals in group)", "setting": "[2]; 0.1% dexamethasone (Maxidex), 0.05 mg/dose", "value": "Six of ten"}, {"measurement": "Mortality (number of animals found dead or euthanized prior to study completion/number of animals in group)", "setting": "[2]; 0.1% dexamethasone (Maxidex), 0.05 mg/dose, listed as Dexamethasone", "value": "6/10^(3)"}, {"measurement": "Day of Death (day euthanized or found dead), individual rabbits", "setting": "[2]; [7]", "value": "25 (2×) and 27 (2×) and 23 and 13"}, {"measurement": "Recorded Notes on mortality/morbidity, individual rabbits", "setting": "[2]; [7]", "value": "Euthanized due to severe profuse hemorrhagic diarrhea; also recorded: Found dead. No rigor mortis present"}, {"measurement": "Mortality rate", "setting": "[2]; dexamethasone 0.05 mg/dose 4 × daily up to 31 days", "value": 6, "unit": "deaths per 10 rabbits"}]}, {"molecule": "CCCCCC=CC=C1C(=O)C=C[C@@H]1CC=CCCCC(=O)O", "note": "[15-deoxy-Δ-12,14-prostaglandin J2]", "values": [{"measurement": "Effect on neovascularization and angiogenesis in the rat cornea", "setting": "[3]", "value": "inhibit"}]}, {"molecule": "Cc1ccc2c(NCC(O)(CC(C)(C)c3cc(F)cc4c3OCC4)C(F)(F)F)cccc2n1", "note": "(stereo not shown)", "values": [{"measurement": "Effect on TGF-β-induced cellular level of collagen type I", "setting": "[4]", "value": "inhibitory effect that appeared dose-related; also recorded: inhibit"}, {"measurement": "Effect on TGF-β-induced cellular level of tissue transglutaminase", "setting": "[4]", "value": "inhibitory effect that appeared dose-related; also recorded: inhibit"}, {"measurement": "Effect on TGF-β-induced cellular level of α-smooth muscle actin", "setting": "[4]", "value": "inhibitory effect that appeared dose-related; also recorded: inhibit"}, {"measurement": "Potency relative to dexamethasone for inhibition of IL-1β-stimulated production of IL-6, IL-7, TGF-α, TNF-α, VGEF, and MCP-1", "setting": "[5]", "value": "comparable potency"}, {"measurement": "Potency relative to dexamethasone in inhibiting IL-1β-stimulated production of G-CSF", "setting": "[5]", "value": "more potent than dexamethasone"}, {"measurement": "Potency relative to dexamethasone in inhibiting IL-1β-stimulated production of GM-CSF, IL-8, and RANTES", "setting": "[5]", "value": "somewhat less potent than dexamethasone"}, {"measurement": "Effect on IL-1β-stimulated RANTES production", "setting": "[5]; 1 nM-10 μM, IL-1β 10 ng/ml, 18 h", "value": "no significant effect"}, {"measurement": "Conjunctival Congestion Score, treated right eye", "setting": "[1]; 1 mg/g suspension 4 × daily, animal No. 3040, Day 22", "value": 1}, {"measurement": "Ophthalmic Observation (Slit-Lamp), treated right eye, individual animals", "setting": "[1]; 1 mg/g suspension 4 × daily", "value": "AN"}, {"measurement": "Other slit-lamp finding in dosed right eye", "setting": "[1]; 1 mg/g suspension, Group D, No. 3043", "value": "subconjunctival hemorrhage"}, {"measurement": "Conjunctival Congestion Score, treated right eye", "setting": "[1]; 5 mg/g suspension 4 × daily, animal No. 3031, Day 22", "value": 1}, {"measurement": "Conjunctival Congestion Score, treated right eye", "setting": "[1]; 5 mg/g suspension 4 × daily, animal No. 3035, Days 22, 26", "value": 1}, {"measurement": "Conjunctival Congestion Score, treated right eye", "setting": "[1]; 5 mg/g suspension 4 × daily, animal No. 3064, Day 5", "value": 1}, {"measurement": "Conjunctival Congestion Score, treated right eye", "setting": "[1]; 5 mg/g suspension 4 × daily, animal No. 3074, Day 26", "value": 1}, {"measurement": "Ophthalmic Observation (Slit-Lamp), treated right eye, individual animals", "setting": "[1]; 5 mg/g suspension 4 × daily", "value": "AN"}, {"measurement": "Conjunctival Congestion Score, treated right eye", "setting": "[1]; 10 mg/g suspension 4 × daily, animal No. 3003, Day 12", "value": 1}, {"measurement": "Conjunctival Congestion Score, treated right eye", "setting": "[1]; 10 mg/g suspension 4 × daily, animal No. 3017, Days 5, 12", "value": 1}, {"measurement": "Conjunctival Congestion Score, treated right eye", "setting": "[1]; 10 mg/g suspension 4 × daily, animal No. 3042, Day 26", "value": 1}, {"measurement": "Surface area of cornea involvement Score, treated right eye", "setting": "[1]; 10 mg/g suspension 4 × daily, animal No. 3083, Day 5", "value": "1 (1 = 1-25% area of stromal cloudiness.)"}, {"measurement": "Cornea Score, treated right eye", "setting": "[1]; 10 mg/g suspension 4 × daily, animal No. 3083, Day 5, pinpoint corneal scar", "value": "1^(2)"}, {"measurement": "Ophthalmic Observation (Slit-Lamp), treated right eye, individual animals", "setting": "[1]; 10 mg/g suspension 4 × daily", "value": "AN"}, {"measurement": "Other slit-lamp finding in dosed right eye", "setting": "[1]; 10 mg/g suspension, Group B, No. 3083", "value": "pinpoint corneal scar"}, {"measurement": "Day of Death (day euthanized or found dead), individual rabbits", "setting": "[2]", "value": 29}, {"measurement": "Recorded Notes on mortality/morbidity, individual rabbits", "setting": "[2]; 1 mg/g suspension, 0.05 mg/dose 4 × daily (Group D)", "value": "Found dead."}, {"measurement": "Mortality (number of animals found dead or euthanized prior to study completion/number of animals in group)", "setting": "[2]; 1 mg/g suspension, 0.05 mg/dose", "value": "one of ten and 1/10^(6)"}, {"measurement": "Day of Death (day euthanized or found dead), individual rabbits", "setting": "[2]; 10 mg/g suspension, 0.5 mg/dose 4 × daily (Group B)", "value": 11}, {"measurement": "Mortality (number of animals found dead or euthanized prior to study completion/number of animals in group)", "setting": "[2]; 10 mg/g suspension, 0.5 mg/dose", "value": "one of ten and 1/10^(4)"}]}, {"molecule": "Prolactin: antagonist to at least one TGF-β isoform (protein, UniProt P01236 29-227, looked up) Prolactin: LPICPGGAARCQVTLRDLFDRAVVLSHYIHNLSSEMFSEFDKRYTHGRGFITKAINSCHTSSLATPEDKEQAQQMNQKDFLSLIVSILRSWNEPLYHLVTEVRGMQEAPEAILSKAVEIEEQTKRLLEGMELIVSQVHPETKENEIYPVWSGLPSLQMADEESRLSAYYNLLHCLRRDSHKIDNYLKLLKCRIIHNNNC", "values": [{"measurement": "Effect on the chemotaxis of fibroblasts", "setting": "[6]", "value": "inhibit"}]}]}
